Measured values from patent US4774184A, “Culture and process for producing antibiotic LL-D42067alpha” (American Cyanamid Company, priority 1985, dated 1988).
Converted amounts (≈) assume the structure as drawn. Read-outs that look alike come from different tables or passages of the source.

Assays:
Assay type in all cases: cell-based
Staphylococcus aureus = assay: in vitro antimicrobial spectrum, agar plate dilution MIC; conditions: Mueller-Hinton agar, 18 hours, 35° C.; for MIC: Staphylococcus aureus, read-out: minimal inhibitory concentration (MIC)
Method: (§1) The in vitro antimicrobial spectrum of LL-D42067α was determined by the agar plate dilution method with Mueller-Hinton agar and an inoculum of each test organism of approximately 10^4 colony forming units delivered by the Steers replicating device. The minimal inhibitory concentration (MIC) in mcg/ml was defined as the lowest concentration of LL-D42067α that inhibited visible growth after 18 hours incubation at 35° C.

[1] = system: Staphylococcus epidermidis; assay: as above; conditions: 18 hours, 35° C., read-out: minimal inhibitory concentration (MIC)
Method: as §1

Proteus morganii = assay: as above; conditions: Morganella morganii; strain K-79-25; Mueller-Hinton agar, 18 hours, 35° C.; read-out: minimal inhibitory concentration (MIC)
Method: as §1

Streptococcus mutans = assay: as above; conditions: 18 hours, 35° C., read-out: minimal inhibitory concentration (MIC)
Method: as §1

Klebsiella pneumoniae = assay: as above; conditions: strain AD, Mueller-Hinton agar, 18 hours, 35° C., read-out: minimal inhibitory concentration (MIC)
Method: as §1

[2] = system: Acinetobacter calcoaceticus; assay: as above; conditions: strain Stfd-79-17, Mueller-Hinton agar, 18 hours, 35° C., read-out: minimal inhibitory concentration (MIC)
Method: as §1

Saccharomyces cerevisiae = assay: as above; conditions: strain Y 15, Mueller-Hinton agar, 18 hours, 35° C., read-out: minimal inhibitory concentration (MIC)
Method: as §1

Bacillus cereus = assay: as above; conditions: strain LL #4, Mueller-Hinton agar, 18 hours, 35° C., read-out: minimal inhibitory concentration (MIC)
Method: as §1

[3] = system: Streptococcus (enterococcus sp); assay: as above; conditions: Mueller-Hinton agar, 18 hours, 35° C.
Method: as §1

Escherichia coli = assay: as above; conditions: 18 hours, 35° C., read-out: minimal inhibitory concentration (MIC)
Method: as §1

Streptococcus sanguis = assay: as above; conditions: strain G9B (a), Mueller-Hinton agar, 18 hours, 35° C., read-out: minimal inhibitory concentration (MIC)
Method: as §1

Streptococcus faecalis = assay: as above; conditions: Enterococcus faecalis, ATCC29212; strain ATCC 29212; Mueller-Hinton agar, 18 hours, 35° C.; read-out: minimal inhibitory concentration (MIC)
Method: as §1

Bacillus subtilis = assay: as above; conditions: ATCC6633, strain ATCC 6633, Mueller-Hinton agar, 18 hours, 35° C., read-out: minimal inhibitory concentration (MIC)
Method: as §1

Candida albicans = assay: as above; conditions: strain CA 300, Mueller-Hinton agar, 18 hours, 35° C., read-out: minimal inhibitory concentration (MIC)
Method: as §1

Micrococcus luteus = assay: as above; conditions: strain PC 1001, Mueller-Hinton agar, 18 hours, 35° C., read-out: minimal inhibitory concentration (MIC)
Method: as §1

yeasts = assay: in vitro antimicrobial spectrum, summary in words; conditions: summary of Table VI
Method: as §1

gram-positive bacteria = assay: in vitro antimicrobial spectrum, summary in words; conditions: summary of Table VI
Method: as §1

## COc1c2c(c(O)c3c(=O)c4c(oc13)C(O)CCC4O)-c1c3c(c4cc(C)n(C)c(=O)c4c1O)OCOC3C2 (stereo not drawn) [LL-D42067α]
Staphylococcus aureus; ATCC25923, strain ATCC 25923
  MIC: ≤ 0.06 µg/mL
Staphylococcus aureus; strain Smith
  MIC: ≤ 0.06 µg/mL
Staphylococcus aureus; strain LL #14
  minimal inhibitory concentration (MIC): ≤ 0.06 µg/mL
Staphylococcus aureus; strain LL #27
  minimal inhibitory concentration (MIC): ≤ 0.06 µg/mL
Staphylococcus aureus; strain LL #45
  minimal inhibitory concentration (MIC): ≤ 0.06 µg/mL
[1]; ATCC12228, strain ATCC 12228, Mueller-Hinton agar
  MIC: ≤ 0.06 µg/mL
[1]; strain CMC-83-56, Mueller-Hinton agar
  MIC: ≤ 0.06 µg/mL
Proteus morganii
  MIC: 512 µg/mL (≈ 956 µM)
Streptococcus mutans; ATCC27352, strain ATCC 27352, Mueller-Hinton agar
  MIC: ≤ 0.06 µg/mL
Streptococcus mutans; strain BHI (b), Mueller-Hinton agar
  MIC: ≤ 0.06 µg/mL
Klebsiella pneumoniae
  MIC: 512 µg/mL (≈ 956 µM)
[2]
  MIC: 512 µg/mL (≈ 956 µM)
Saccharomyces cerevisiae
  MIC: 32 µg/mL (≈ 59.8 µM)
Bacillus cereus
  MIC: ≤ 0.06 µg/mL
[3]; Streptococcus, strain OSU-75-1, read-out: minimal inhibitory concentration (MIC)
  MIC: ≤ 0.06 µg/mL
[3]; strain SM-77-15
  minimal inhibitory concentration (MIC): ≤ 0.06 µg/mL
Escherichia coli; ATCC25922, strain ATCC 25922, Mueller-Hinton agar
  MIC: 512 µg/mL (≈ 956 µM)
Escherichia coli; strain #311, Mueller-Hinton agar
  MIC: 512 µg/mL (≈ 956 µM)
Streptococcus sanguis
  MIC: ≤ 0.06 µg/mL
Streptococcus faecalis
  MIC: ≤ 0.06 µg/mL
Bacillus subtilis
  MIC: ≤ 0.06 µg/mL
Candida albicans
  MIC: 256 µg/mL (≈ 478 µM)
Micrococcus luteus
  MIC: ≤ 0.06 µg/mL
yeasts
  antimicrobial activity against yeasts: moderately active
gram-positive bacteria
  antimicrobial activity versus gram-positive bacteria: active
